Earlier results in US20230364078A1, “METHOD OF PREPARING NANOPARTICLES COMPRISING POORLY WATER SOLUBLE DRUGS FOR TREATING HEPATITIS” (priority 2022, published 2023).

What was measured:
[1] = non-nanosized drug
[2] = solvent ethanol
[3] = design: key: Class 1 has high solubility and permeability; Class 2 has low solubility but good permeability; Class 3 has high solubility but low permeability; Class 4 has low solubility and permeability; settings: water solubility and intestinal permeability

Structure (SMILES) | solubility in water [1] | solubility to ethanol [2] [mg/mL] | BCS class [3]
COC(=O)N[C@H](C(=O)N1CCC[C@H]1c1ncc(-c2ccc(-c3ccc(-c4cnc([C@@H]5CCCN5C(=O)[C@@H](NC(=O)OC)C(C)C)[nH]4)cc3)cc2)[nH]1)C(C)C [Formula 1, Daclatasvir] | insoluble in water | 148 | 2
C=C[C@@H]1C[C@]1(NC(=O)[C@@H]1C[C@@H]2CN1C(=O)[C@H](C(C)(C)C)NC(=O)O[C@@H]1C[C@H]1CCCCCc1nc3ccc(OC)cc3nc1O2)C(=O)NS(=O)(=O)C1CC1 [Formula 2, Grazoprevir] | very little soluble in water | 15 | 2
C=C[C@@H]1C[C@]1(NC(=O)[C@@H]1C[C@@H](Oc2ncc(OC)c3ccc(Cl)cc23)CN1C(=O)[C@@H](NC(=O)OC(C)(C)C)C(C)(C)C)C(=O)NS(=O)(=O)C1CC1 [Formula 3, Asunaprevir] | very little soluble in water | 100 | 2
COC[C@H]1C[C@@H](c2nc(-c3ccc4c(c3)COc3cc5c(ccc6nc([C@@H]7CC[C@H](C)N7C(=O)[C@@H](NC(=O)OC)C(C)C)[nH]c65)cc3-4)c[nH]2)N(C(=O)[C@H](NC(=O)OC)c2ccccc2)C1 [Formula 4, Velpatasvir] |  | 30 | 4
